# Measurements as given in patent publication US9662310B2, “Cyclopropanecarboxylic acid derivative” (DAIICHI SANKYO COMPANY, LIMITED, priority 2010, dated 2017).
# pIC50: −log10 of the molar value. Structures can show the parent of a compound that is named as a salt. Where two headings read alike, the source gives them in different places.
# Assays:
# [1] = test system: iron chloride-induced thrombus models; settings: mice, intravenous administration; cited from earlier work
# TAFIa = TAFIa (Homo sapiens (Human), UniProt Q96IY4); assay: Determination of TAFIa enzyme inhibitory activity (FAAK substrate degradation); assay type: biochemical; settings: read-out: TAFIa IC50
# Sequence of TAFIa (Q96IY4 115-423): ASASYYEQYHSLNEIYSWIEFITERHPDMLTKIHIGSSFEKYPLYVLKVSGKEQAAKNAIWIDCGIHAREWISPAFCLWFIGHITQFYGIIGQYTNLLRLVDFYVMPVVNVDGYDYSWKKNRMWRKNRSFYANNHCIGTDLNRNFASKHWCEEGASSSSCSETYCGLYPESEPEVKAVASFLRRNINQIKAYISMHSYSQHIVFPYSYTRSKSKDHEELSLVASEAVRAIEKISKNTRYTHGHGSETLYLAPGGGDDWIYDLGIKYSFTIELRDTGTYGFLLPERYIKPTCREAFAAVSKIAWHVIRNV
# Procedure: Determination of TAFIa Enzyme Inhibitory Activity
# HEPES buffered saline (20 mM HEPES, 150 mM NaCl, pH 7.4; hereinafter, referred to as HBS) was used in the preparation of a reaction solution. To 12 μL of a 250 μg/mL TAFI solution, 30 μL of an HBS solution containing 4 U/mL human thrombin, 12 U/mL rabbit lung thrombomodulin, and 12 mM CaCl2 was added, and the mixture was gently stirred. Then, TAFI was activated at room temperature. Ten minutes later, thrombin was neutralized by the addition of 10 μL of 100 μM PPACK (thrombin inhibitor) to terminate the activation of TAFI. The formed TAFIa was stored in ice and diluted immediately before use in determination with 2050 μL of an HBS solution containing BSA (bovine serum albumin) adjusted to 0.1% in terms of the final concentration.
# (2) Determination of TAFIa Inhibitory Activity
# A test substance was dissolved in HBS to prepare a 10-fold dilution series of evaluation concentrations. 80 μL of the TAFIa solution and 10 μL of the test substance were added to each well of a 96-well plate and mixed by shaking for 10 minutes. 10 μL of furylacryloyl-alanyl-lysine (FAAK) adjusted to 5 mg/mL was added to each well, and the change in the absorbance of this mixed solution at 330 nm was read for 30 minutes to determine the degradation rate of the substrate.
# (3) Calculation of Inhibitory Activity IC50
# The degradation rate of the substrate in each well was applied to a standard curve prepared using the dilution series of the TAFIa solution to calculate TAFIa activity.
# [2] = TAFI activated with human thrombin / rabbit lung thrombomodulin, substrate FAAK, absorbance at 330 nm
Compound,pIC50 (TAFIa; [2]),further results
"potato carboxypeptidase inhibitor (PCI) (QQHADPICNKPCKTHDDCSGAWFCQACWNSARTCGPYVG; UniProt P01075 1-39, looked up)",,antithrombotic effect [1]: antithrombotic effect
"C[C@@H](CN)C[C@@H]1C[C@@]1(C(=O)O)c1cn(-c2ccccn2)cn1 [Example 55, (1S,2R)-2-[(2R)-3-Amino-2-methylpropyl]-1-(1-pyridin-2-yl-1H-imidazol-4-yl]cyclopropanecarboxylic acid]",< 5.52,
"CCC[C@@H](CN)C[C@@H]1C[C@@]1(C(=O)O)c1cn(-c2ccccn2)cn1 [Example 67, (1S,2R)-2-[(2R)-2-(Aminomethyl)pentyl]-1-(1-pyridin-2-yl-1H-imidazol-4-yl)cyclopropanecarboxylic acid]",,pIC50 (TAFIa): < 7.00
"CC[C@H](CN)C[C@H]1C[C@]1(C(=O)O)c1cn(-c2ccccc2)cn1 [Example 63, (1R,2S)-2-[(25)-2-(Aminomethyl)butyl]-1-(1-phenyl-1H-imidazol-4-yl)cyclopropanecarboxylic acid]",,pIC50 (TAFIa): 7.92
"NCCC[C@H]1C[C@]1(C(=O)O)c1cn(-c2ccccc2)cn1 [Example 31, (1R,2S)-2-(3-Aminopropyl)-1-(1-phenyl-1H-imidazol-4-yl)cyclopropanecarboxylic acid di-p-toluenesulfonate]",,"pIC50 (TAFIa; TAFI activated with human thrombin / rabbit lung thrombomodulin, substrate FAAK, absorbance at 330 nm, di-p-toluenesulfonate): 7.82"

# Now from value to compound, other results behind:
pIC50 (TAFIa; [2]),Compound,further results
6.03,"CC(CN)C[C@H]1C[C@]1(C(=O)O)c1cn(-c2ccc(S(C)(=O)=O)cc2)cn1 (relative stereo) [Example 34, (1R*,2S*)-2-(3-Amino-2-methylpropyl)-1-{1-[4-(methylsulfonyl)phenyl]-1H-imidazol-4-yl}cyclopropanecarboxylic acid]",
7.43,"Cc1cccc(-n2cnc([C@@]3(C(=O)O)C[C@@H]3CCCN)c2)c1 (relative stereo) [Example 8, (1R*,2S*)-2-(3-Aminopropyl)-1-[1-(3-methylphenyl)-1H-imidazol-4-yl]cyclopropanecarboxylic acid]",
6.77,"NCCC[C@H]1C[C@]1(C(=O)O)c1cn(-c2ccncc2)cn1 (relative stereo) [Example 23, (1R*,2S*)-2-(3-Aminopropyl)-1-(1-pyridin-4-yl-1H-imidazol-4-yl)cyclopropanecarboxylic acid hydrochloride]",
7.41,"Cc1ccc(-n2cnc([C@@]3(C(=O)O)C[C@@H]3CC(C)CN)c2)cc1 (relative stereo) [Example 33, (1R*,2S*)-2-(3-Amino-2-methylpropyl)-1-[1-(4-methylphenyl)-1H-imidazol-4-yl]cyclopropanecarboxylic acid]",
7.68,"NCCC[C@H]1C[C@]1(C(=O)O)c1cn(-c2ccc(F)cc2)cn1 (relative stereo) [Example 15, (1R*,2S*)-2-(3-Aminopropyl)-1-[1-(4-fluorophenyl)-1H-imidazol-4-yl]cyclopropanecarboxylic acid]",
7.24,"NCCC[C@H]1C[C@]1(C(=O)O)c1cn(-c2nccs2)cn1 (relative stereo) [Example 38, (1R*,2S*)-2-(3-Aminopropyl)-1-[1-(1,3-thiazol-2-yl)-1H-imidazol-4-yl]cyclopropanecarboxylic acid]",
